Measurements: patent publication US20100298141A1, “SUBSTITUTED PYRIDINE N-OXIDE HERBICIDES” (E. I. DU PONT DE NEMOURS AND COMPANY, priority 2007, published 2010)

Tested on: Russian thistle
Assay: Test C pre-/postemergence test
Assay type: in vivo, Salsola kali
Details: for Plant response rating, Russian Thistle: scale 0 to 100 (0 no effect, 100 complete control)
Excerpt: Seeds of plant species selected from blackgrass (Alopecurus myosuroides), downy brome (Bromus tectorum), green foxtail (Setaria viridis), Italian ryegrass (Lolium multiflorum), wheat (Triticum aestivum), wild oat (Avena fatua), catchweed bedstraw (Galium aparine), Russian thistle (Salsola kali), […] (Cynodon dactylon), Surinam grass (Brachiaria decumbens), cocklebur (Xanthium strumarium), corn (Zea mays), crabgrass (Digitaria sanguinalis), woolly cupgrass (Eriochloa villosa), giant foxtail (Setaria faberii), Goosegrass (Eleusin indica), johnsongrass (Sorghum halepense), kochia (Kochia scoparia), lambsquarters (Chenopodium album), morningglory (Ipomoea coccinea), eastern black nightshade (Solanum ptycanthum), yellow nutsedge (Cyperus esculentus), pigweed (Amaranthus retroflexus), common ragweed (Ambrosia elation), soybean (Glycine max), common (oilseed) sunflower (Helianthus annuus), and velvetleaf (Abutilon theophrasti) were planted and treated preemergence with test chemicals formulated in a non-phytotoxic solvent mixture which included a surfactant. At the same time, plants selected from these crop and weed species and also winter barley (Hordeum vulgare), canarygrass (Phalaris minor), and chickweed (Stellaria media) were treated with postemergence applications of some of the test chemicals formulated in the same manner. Plants ranged in height from 2 to 18 cm (1- to 4-leaf stage) for postemergence treatments. […] At time of treatment, test pots were flooded to 3 cm above the soil surface, treated by application of test compounds directly to the paddy water, and then maintained at that water depth for the duration of the test. […] A dash (-) response means no test result.

[1] = 62 g ai/ha, Preemergence, scale 0 to 100
[2] = 125 g ai/ha, preemergence, scale 0 (no effect) to 100 (complete control)
[3] = preemergence, 250 g ai/ha, scale 0 (no effect) to 100 (complete control)
[4] = 31 g ai/ha, Preemergence, scale 0 to 100
[5] = 62 g ai/ha, preemergence, scale 0 (no effect) to 100 (complete control)
[6] = preemergence, 125 g ai/ha, scale 0 (no effect) to 100 (complete control)

## Cn1nc(C(F)(F)F)c(C[S+]([O-])c2cccc[n+]2[O-])c1OCC(F)F (stereo not shown) [Compound 75]
[1]
  Russian Thistle plant response rating: 100
[2]
  Russian Thistle plant response rating: 100
Preemergence, 31 g ai/ha
  Plant response rating, Russian Thistle: 100
[3]
  Russian Thistle plant response rating: 100

## CC(c1c(C(F)(F)F)nn(CC(F)(F)F)c1Cl)[S+]([O-])c1cccc[n+]1[O-] (stereo not shown) [Compound 46]
[1]
  Russian Thistle plant response rating: 0
[2]
  Russian Thistle plant response rating: 100
[3]
  Russian Thistle plant response rating: 100

## Cn1nc(C(F)(F)F)c(C(Cl)S(=O)(=O)c2cccc[n+]2[O-])c1Cl (stereo not shown) [Compound 12]
[4]
  Russian Thistle plant response rating: 100
[5]
  Russian Thistle plant response rating: 100
Preemergence, 250 g ai/ha
  Plant response rating (0 to 100), Russian Thistle: 100
[6]
  Russian Thistle plant response rating: 100

## Cc1cc[n+]([O-])c(S(=O)(=O)Cc2c(C(F)(F)F)nn(C)c2OCC(F)F)c1 [Compound 94]
[1]
  Russian Thistle plant response rating: 100
[2]
  Russian Thistle plant response rating: 100
Preemergence, 31 g ai/ha
  Plant response rating, Russian Thistle: 100
[3]
  Russian Thistle plant response rating: 100

## [O-][n+]1cc(Cl)ccc1[S+]([O-])Cc1c(C(F)(F)F)nn(CC(F)(F)F)c1Cl (stereo not shown) [Compound 47]
[2]
  Russian Thistle plant response rating: 0
[3]
  Russian Thistle plant response rating: 100

## CC(c1c(C(F)(F)F)nn(C)c1OC(F)F)S(=O)(=O)c1cc(C(C)(C)C)cc[n+]1[O-] (racemic) [Compound 26]
[1]
  Russian Thistle plant response rating: 50
Preemergence, 31 g ai/ha
  Plant response rating, Russian Thistle: 0

## Cn1nc(C(F)(F)F)c(C(Cl)S(=O)(=O)c2cccc[n+]2[O-])c1OC(F)F (stereo not shown) [Compound 51]
[1]
  Russian Thistle plant response rating: 100
[2]
  Russian Thistle plant response rating: 100
Preemergence, 31 g ai/ha
  Plant response rating, Russian Thistle: 40
[3]
  Russian Thistle plant response rating: 100

## Cc1cc[n+]([O-])c(S(=O)(=O)C(C)c2c(C(F)(F)F)nn(C)c2Cl)c1 (racemic) [Compound 14]
[4]
  Russian Thistle plant response rating: 80
[5]
  Russian Thistle plant response rating: 100
Preemergence, 250 g ai/ha
  Plant response rating (0 to 100), Russian Thistle: 100
[6]
  Russian Thistle plant response rating: 100

## Cn1nc(C(F)(F)F)c(C[S+]([O-])c2cc(Br)cc[n+]2[O-])c1Cl (racemic) [Compound 35]
[1]
  Russian Thistle plant response rating: 100
[2]
  Russian Thistle plant response rating: 100
Preemergence, 31 g ai/ha
  Plant response rating, Russian Thistle: 100
[3]
  Russian Thistle plant response rating: 100
